# Source: article PMC9871744 (Cellular and Molecular Gastroenterology and Hepatology, 2022)
# Where “and” joins values, the source holds several entries; their conditions need not be identical. Equal values may be shown once.
# How the values were obtained:
# [1] = tested on: C57Bl/6 male mice; assay: Two-bottle preference and licking tests; assay type: in vivo; settings: 50 μmol/L in 0.3% xanthan gum, 12 hours
# [2] = tested on: human fungiform TBC; assay: Ca2+ signaling in human fungiform TBC; assay type: cell-based
# [3] = tested on: chorda tympani (CT) nerve; assay: Chorda tympani; assay type: in vivo; settings: lingual application in mice; 1, 2, and 4 mmol/L; normalized to NH4Cl 100 mmol/L
# [4] = tested on: C57BL/6J male mice; assay: Diet-induced obesity; assay type: in vivo
# [5] = tested on: HepG2 cells; assay: Cytotoxicity evaluation
# [6] = Cytotoxicity evaluation; settings: human, Cytotoxicity (%); for cytotoxicity at 0.05 mmol/L: 0.050 mmol/L; for cytotoxicity at 0.1 mmol/L: 0.100 mmol/L
# [7] = biological target: T1, human estrogen receptor alpha (hERα) (Homo sapiens, UniProt P03372); assay: Estrogen receptor transcriptional activation and inhibition assays; assay type: cell-based
# T1 sequence (P03372 1-595): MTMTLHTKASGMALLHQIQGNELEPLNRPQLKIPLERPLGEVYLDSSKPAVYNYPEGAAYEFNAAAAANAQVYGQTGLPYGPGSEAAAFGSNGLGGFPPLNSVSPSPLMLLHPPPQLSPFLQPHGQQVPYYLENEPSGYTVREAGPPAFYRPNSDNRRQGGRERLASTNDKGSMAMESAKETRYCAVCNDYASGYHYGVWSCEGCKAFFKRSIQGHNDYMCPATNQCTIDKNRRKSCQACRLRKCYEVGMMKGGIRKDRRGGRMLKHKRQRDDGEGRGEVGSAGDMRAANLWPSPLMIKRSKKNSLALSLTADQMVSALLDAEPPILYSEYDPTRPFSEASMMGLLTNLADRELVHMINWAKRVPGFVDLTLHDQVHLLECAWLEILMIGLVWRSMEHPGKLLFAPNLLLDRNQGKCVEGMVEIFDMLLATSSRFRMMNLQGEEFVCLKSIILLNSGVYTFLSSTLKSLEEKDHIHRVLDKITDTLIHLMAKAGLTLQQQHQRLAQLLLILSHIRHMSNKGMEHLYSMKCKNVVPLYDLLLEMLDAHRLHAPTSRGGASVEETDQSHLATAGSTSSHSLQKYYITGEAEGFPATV
# [8] = tested on: HepG2 cells; assay: Micronucleus analysis
# [9] = Pharmacokinetics and detection in blood by LC-MS; assay type: in vivo, mice
# [10] = tested on: MDA-kb2 cells; assay: Cytotoxicity in the androgen receptor reporter cells; assay type: cell-based
# [11] = tested on: mouse fungiform TBC; assay: Ca2+ signaling in mouse fungiform TBC; assay type: cell-based; settings: LA at 20 μmol/L
# [12] = tested on: S typhimurium tester strains TA98, TA100, TA1535, and TA1537 and E coli tester strain WP2uvrA(pKM101); settings: all doses with and without S9
# [13] = extended treatment in the absence of S9 mix, 0.0065 mmol/L
# [14] = extended treatment in the absence of S9 mix, 0.010 mmol/L
# [15] = extended treatment in the absence of S9 mix, 0.020 mmol/L
# [16] = extended treatment in the absence of S9 mix, 0.030 mmol/L
# [17] = extended treatment in the absence of S9 mix, 0.040 mmol/L
# [18] = short treatment in absence of S9 mix, 0.025 mmol/L
# [19] = short treatment in absence of S9 mix, 0.050 mmol/L
# [20] = short treatment in absence of S9 mix, 0.100 mmol/L
# [21] = short treatment in absence of S9 mix, 0.25 mmol/L
# [22] = short treatment in the presence of S9 mix
# [23] = short treatment in the presence of S9 mix, 0.025 mmol/L
# [24] = short treatment in the presence of S9 mix, 0.050 mmol/L
# [25] = short treatment in the presence of S9 mix, 0.100 mmol/L
# [26] = short treatment in the presence of S9 mix, 0.25 mmol/L
# [27] = short treatment in absence of S9 mix
# [28] = extended treatment in the absence of S9 mix, 2.5 mmol/L (Table 14)
# [29] = extended treatment in the absence of S9 mix, 5 mmol/L (Table 14)
# [30] = extended treatment in the absence of S9 mix, 10 mmol/L (Table 14)
# [31] = short treatment in the absence of S9 mix, 0.025 mmol/L
# [32] = short treatment in the absence of S9 mix, 0.05 mmol/L
# [33] = short treatment in the absence of S9 mix, 0.10 mmol/L
# [34] = short treatment in the presence of S9 mix, 0.05 mmol/L
# [35] = short treatment in the presence of S9 mix, 0.10 mmol/L
# [36] = bicompartmental model (Monolix), mice i.v.
structure (smiles),measurement,setting,value
"CCCCC/C=C\C/C=C\CCCCCCCCP(=O)(OCC)OCC [NKS-3, diethyl (9Z,12Z)-octadeca-9,12-dien-1-ylphosphonate]",preference in 2-bottle paradigm versus control solution,[1],significant preference
same,Ca2+ signaling compared with a dietary long-chain fatty acid,[2],higher
same,"increase in intracellular free Ca2+ concentrations, [Ca2+]i","[2]; NKS-3 50 μmol/L, NKS-5 25 μmol/L",induced a rapid increase
same,"CT nerve responses compared with dietary LCFAs (LA, OA)",[3],higher
same,"CD36 (reduced) and GPR120 (high) protein expression in TBC, Western blots","[4]; HFD animals, FTA intake 16 weeks",reversed this trend
same,locomotor activity,[4]; HFD mice,increased
same,LA-induced decreases in [Ca2+]i in TBC from obese mice,[4]; HFD mice given FTA 16 weeks,reversed
same,daily energy expenditure (indirect calorimetry),[4]; HFD-fed mice,significantly increased
same,leptin mRNA expression in adipose tissues,[4]; HFD-fed mice,failed to significantly decrease
same,fecal microbiota: bacterial family increased,"[4]; HFD-fed mice, 16S rRNA sequencing, week 26",Marinifilaceae
same,"adipose tissue mRNA encoding leptin, CD36, TNF-α, and IL6","[4]; HFD-fed mice, epididymal adipose tissue",down-regulated
same,crown-like structures of adipocytes,"[4]; obese animals, histology",decreased
same,"release of GLP-1, CCK-1, and PYY into blood circulation","[4]; obese mice, end of week 26",induced the release
same,concentrations with evidence of toxicity,[5]; extended treatment in the absence of S9 mix,≥ 30 µM
same,CBPI,[5]; [13],1.64 and 1.74
same,Mean CBPI,[5]; [13],1.69
same,CBPI,[5]; [14],1.57 and 1.62
same,Mean CBPI,[5]; [14],1.59
same,CBPI,[5]; [15],1.47 and 1.46
same,Mean CBPI,[5]; [15],1.46
same,CBPI,[5]; [16],1.25
same,Mean CBPI,[5]; [16],1.25
same,CBPI,[5]; [17],1.24
same,Mean CBPI,[5]; [17],1.24
same,Cytotoxicity (%),"[5]; extended treatment in the absence of S9 mix, 0.062 mmol/L",Cell death
same,Cytotoxicity (%),"[5]; extended treatment in the absence of S9 mix, 0.125 mmol/L",Cell death
same,CBPI,[5]; [18],1.83 and 1.84
same,Mean CBPI,[5]; [18],1.84
same,CBPI,[5]; [19],1.64 and 1.66
same,Mean CBPI,[5]; [19],1.65
same,CBPI,[5]; [20],1.28 and 1.38
same,Mean CBPI,[5]; [20],1.33
same,CBPI,[5]; [21],1.28
same,Mean CBPI,[5]; [21],1.26
same,Cytotoxicity (%),"[5]; short treatment in absence of S9 mix, 0.40 mmol/L",Cell death
same,Cytotoxicity (%),"[5]; short treatment in absence of S9 mix, 0.50 mmol/L",Cell death
same,Cytotoxicity (%),"[5]; short treatment in absence of S9 mix, 1.00 mmol/L",Cell death
same,Cytotoxicity (%),"[5]; short treatment in absence of S9 mix, 5.00 mmol/L",Cell death
same,Cytotoxicity (%),"[5]; short treatment in absence of S9 mix, 10.00 mmol/L",Cell death
same,concentrations with evidence of toxicity,[5]; short treatment in the absence of S9 mix,≥ 250 µM
same,concentrations with evidence of toxicity,[5]; [22],≥ 250 µM
same,CBPI,[5]; [23],1.83 and 1.84
same,Mean CBPI,[5]; [23],1.83
same,CBPI,[5]; [24],1.86 and 1.82
same,Mean CBPI,[5]; [24],1.84
same,CBPI,[5]; [25],1.63 and 1.66
same,Mean CBPI,[5]; [25],1.65
same,CBPI,[5]; [26],1.20 and 1.23
same,Mean CBPI,[5]; [26],1.22
same,Cytotoxicity (%),"[5]; short treatment in the presence of S9 mix, 0.40 mmol/L",Cell death
same,Cytotoxicity (%),"[5]; short treatment in the presence of S9 mix, 0.50 mmol/L",Cell death
same,Cytotoxicity (%),"[5]; short treatment in the presence of S9 mix, 1.00 mmol/L",Cell death
same,Cytotoxicity (%),"[5]; short treatment in the presence of S9 mix, 5.00 mmol/L",Cell death
same,Cytotoxicity (%),"[5]; short treatment in the presence of S9 mix, 10.00 mmol/L",Cell death
same,cytotoxicity at 0.0065 mmol/L,[6]; [13],24.9%
same,cytotoxicity at 0.01 mmol/L,[6]; [14],35.3%
same,cytotoxicity at 0.02 mmol/L,[6]; [15],49.5%
same,cytotoxicity at 0.03 mmol/L,[6]; [16],72.8%
same,cytotoxicity at 0.04 mmol/L,[6]; [17],73.7%
same,cytotoxicity at 0.025 mmol/L,[6]; [27],-9.99%
same,cytotoxicity at 0.05 mmol/L,[6]; [27],14.7%
same,cytotoxicity at 0.1 mmol/L,[6]; [27],56.2%
same,cytotoxicity at 0.25 mmol/L,[6]; [27],65.5%
same,cytotoxicity at 0.025 mmol/L,[6]; [22],-3.6%
same,cytotoxicity at 0.05 mmol/L,[6]; [22],-5.03%
same,cytotoxicity at 0.1 mmol/L,[6]; [22],19.4%
same,cytotoxicity at 0.25 mmol/L,[6]; [22],73%
same,estrogenic or antiestrogenic potential (conclusion),[7],did not exert an estrogenic or antiestrogenic potential
same,MNBN cells frequency (%),[8]; [13],0.8% and 0.6%
same,Mean frequency (%) of MNBN cells,[8]; [13],0.70%
same,MNBN cells frequency (%),[8]; [14],0.9% and 0.8%
same,Mean frequency (%) of MNBN cells,[8]; [14],0.85%
same,MNBN cells frequency (%),[8]; [15],0.9% and 0.6%
same,Mean frequency (%) of MNBN cells,[8]; [15],0.75%
same,MNBN cells frequency (%),[8]; [28],0.9% and 0.7%
same,Mean frequency (%) of MNBN cells,[8]; [28],0.80%
same,MNBN cells frequency (%),[8]; [29],0.9% and 0.8%
same,Mean frequency (%) of MNBN cells,[8]; [29],0.85%
same,MNBN cells frequency (%),[8]; [30],1.0% and 0.9%
same,Mean frequency (%) of MNBN cells,[8]; [30],0.95%
same,MNBN cells frequency (%),[8]; [31],0.6% and 0.5%
same,Mean frequency (%) of MNBN cells,[8]; [31],0.55%
same,MNBN cells frequency (%),[8]; [32],0.7%
same,Mean frequency (%) of MNBN cells,[8]; [32],0.70%
same,MNBN cells frequency (%),[8]; [33],0.7% and 0.6%
same,Mean frequency (%) of MNBN cells,[8]; [33],0.65%
same,MNBN cells frequency (%),[8]; [23],0.7%
same,Mean frequency (%) of MNBN cells,[8]; [23],0.70%
same,MNBN cells frequency (%),[8]; [34],0.6% and 0.8%
same,Mean frequency (%) of MNBN cells,[8]; [34],0.70%
same,MNBN cells frequency (%),[8]; [35],0.6% and 0.4%
same,Mean frequency (%) of MNBN cells,[8]; [35],0.50%
same,"Intercompartmental clearance, population pharmacokinetic estimation mean",[9]; [36],0.739 L/h
same,"Proportional residual error, population pharmacokinetic model",[9]; [36],1.89%
same,"Volume of central compartment, population pharmacokinetic estimation mean",[9]; [36],0.0634 L
same,"Volume of peripheral compartment, population pharmacokinetic estimation mean",[9]; [36],2.24 L
same,detection in blood circulation after intravenous injections (LC-MS),[9]; mice,could be detected
same,AUClast as share of the total exposure,"[9]; mice, intravenous 10 mg/kg",about 80%
same,AUClast,"[9]; mice, intravenous 10 mg/kg body weight, NCA (AUC0–6 h), 10 mg/kg",59.94 ± 12.09 mg/kg/Lxh
same,Tmax,"[9]; mouse, plasma, iv, 10 mg/kg",5 min
same,Vd,"[9]; mouse, plasma, iv, 10 mg/kg",1.23 ± 0.279 L/kg
same,clearance,"[9]; mouse, plasma, iv, 10 mg/kg",2.82 mL/min/kg and 3.37 mL/min
same,half-life,"[9]; mouse, plasma, iv, 10 mg/kg",4 h
same,AUC(0-t),"[9]; mouse, plasma, iv, 10 mg/kg, AUClast, mice, intravenous 10 mg/kg body weight, NCA (AUC0–6 h)",~60000 ng·h/mL
same,Cmax,"[9]; mouse, plasma, iv, 10 mg/kg, mice, dose of 10 mg/kg body weight",~48000 ng/mL
same,Cmax,"[9]; mouse, plasma, iv, 10 mg/kg, mice, intravenous 10 mg/kg body weight, NCA, means ± SEM, five mice",46700 ± 15300 ng/mL
same,cytotoxic concentrations,[10]; MDA-kb2 cells,≥ 10 µmol/L
same,highest non-cytotoxic concentration,[10]; androgen receptor assays,5 µmol/L
same,Ca2+ signaling compared with a dietary long-chain fatty acid,[11],higher
same,toxicity in the tester strains,[12],No toxicity
